The target in this test is CDK2 (human) (UniProt P24941). The test can be described thus: Enzyme Assay.
What is called IC50 is the midpoint of a concentration-inhibition curve. Lower therefore signals higher potency. Consider `Cc1n[nH]cc1-c1ccnc(NC2CC2)n1`, for which the IC50 is under 10 µM. Next, `Cc1n[nH]cc1-c1ccnc(NCc2ccc3c(c2)OCO3)n1`: under 10 µM; `CC(C)c1n[nH]cc1-c1ccnc(NCc2ccc(N(C)C)cc2)n1`: under 5 µM; `Cc1n[nH]cc1-c1ccnc(NCCc2cccnc2)n1`: under 10 µM. `c1cc(-c2cn[nH]c2C2CCCC2)cc(NC2CCC2)n1` gave an IC50 of under 0.5 µM.

As for `CCCCNc1cc(-c2cn[nH]c2C(C)C)ccn1`, the concentration for half-maximal inhibition (IC50) is under 5 µM. For `CC(C)c1n[nH]cc1-c1ccnc(NC2CN3CCC2CC3)n1` (stereo unspecified) the value was under 5 µM. Next, `Cc1n[nH]cc1-c1ccnc(NC2CCc3ccccc32)n1` (stereo unspecified): under 10 µM. For `Cc1n[nH]cc1-c1ccnc(NC2Cc3ccccc3C2)n1` the value was under 5 µM. `CCC(C)c1[nH]ncc1-c1ccnc(NC2CCc3ccccc32)c1` (stereo unspecified) had an IC50 of under 5 µM.

Molecule `Cc1n[nH]cc1-c1ccnc(NC2CCC2)n1` returned an IC50 of under 5 µM. Turning to `Cc1n[nH]cc1-c1ccnc(NCc2ccccc2)n1`, the half-maximal inhibitory concentration (IC50) was under 15 µM. With `CC(C)c1n[nH]cc1-c1ccnc(NC2CCCCC2C)n1` (stereo unspecified), the half-inhibitory concentration (IC50) was under 1 µM.

Take `Cc1ccccc1CNc1cc(-c2cn[nH]c2C(C)C)ccn1`: the IC50 was under 5 µM. For `Cc1n[nH]cc1-c1ccnc(NCc2cc(F)cc(F)c2)n1` the value was under 5 µM.

Regarding `CC(C)c1[nH]ncc1-c1ccnc(NCc2ccncc2)c1`, the concentration for half-maximal inhibition (IC50) is under 5 µM. Next, `CC(C)c1[nH]ncc1-c1ccnc(NCCCO)c1`: under 5 µM.

On to `CC(C)c1n[nH]cc1-c1ccnc(NC2CCN(c3ccccc3)CC2)n1`, for which the concentration for half-maximal inhibition (IC50) is under 0.5 µM. For `Cc1n[nH]cc1-c1ccnc(NCc2ccncc2)n1` the value was under 15 µM; for `CC(C)c1n[nH]cc1-c1ccnc(NCc2ccccc2Cl)n1`, under 1 µM; for `Cc1cccc(CNc2cc(-c3cn[nH]c3C(C)C)ccn2)c1`, under 5 µM. With `CC(C)c1[nH]ncc1-c1ccnc(NCC2CCCCC2)c1`, the IC50 was under 5 µM. Next, `Cc1n[nH]cc1-c1ccnc(NCCOc2ccccc2)n1`: under 15 µM; `Cc1ccc(CNc2cc(-c3cn[nH]c3C3CCCC3)ccn2)cc1`: under 5 µM; `COCCCNc1cc(-c2cn[nH]c2C(C)C)ccn1`: under 5 µM. Next, `COc1ccc(CNc2nccc(-c3c[nH]nc3C)n2)cc1`: under 15 µM; `CC(C)c1n[nH]cc1-c1ccnc(N[C@H](C)c2ccccn2)n1`: under 5 µM. For `CC(CCCC(C)(C)O)Nc1nccc(-c2c[nH]nc2C(C)C)n1` (stereo unspecified) the value was under 5 µM; for `CCC(Nc1nccc(-c2c[nH]nc2C(C)C)n1)c1ccccc1` (stereo unspecified), under 5 µM; for `CC(C)c1n[nH]cc1-c1ccnc(NC2CCN(C(=O)OC(C)(C)C)CC2)n1`, under 1 µM.

For the molecule `CC(C)c1n[nH]cc1-c1ccnc(NC2CCN(C)CC2)n1`, the IC50 was under 1 µM. Next, `CCC(C)Nc1nccc(-c2c[nH]nc2C(C)C)n1` (stereo unspecified): under 0.5 µM.

With `Cc1n[nH]cc1-c1ccnc(NCCCn2ccnc2)n1`, the IC50 is under 10 µM. For `CC(C)c1[nH]ncc1-c1ccnc(Nc2ccccc2)c1` the value was under 0.05 µM; for `CC(C)c1[nH]ncc1-c1ccnc(NC2CCCCCC2)c1`, under 0.5 µM; for `CC(C)c1[nH]ncc1-c1ccnc(NCc2ccccc2)c1`, under 5 µM.
